Experimental data taken from patent publication US20260200943A1, “COMPOUNDS FOR TREATING CANCER” (Genesis Therapeutics, Inc., priority 2022, published 2026).
Like-named read-outs stand apart in the source and are kept apart here.

Columns and labels:
[1] = the molecule shown is the open-chain precursor; other bond; 20-membered ring; HCOOH; then DIEA; DMF; 76.7 mM; 50.0 °C; 2 steps
CDK2/CyclinA2 [2] = target: T1, CDK2/CyclinA2 (Homo sapiens, UniProt P24941); test: CDK2/Cyclin A2 Mobility Shift Assay (Caliper, Table B); assay type: biochemical; details: for Ki: Caliper mobility shift, 10xKm, read-out: CDK2/CCNA2 Caliper 10xKm Ki: Average Ki
T1 construct: Wild-type, full length CDK2 in complex with wildtype, full length CyclinA2: Carna Cat #04-103; purchased Carna 04-103
Protocol: 10 nL of 2000× compound in 100% DMSO is added to a 384-well polypropylene assay plate. 15 μL of 1.3×CDK2/A2 and 1.3× fluorescent substrate (Wild-type, full length CDK2 in complex with wildtype, full length CyclinA2: Carna Cat #04-103 and FL-Peptide 18: PerkinElmer Cat #760362) diluted in kinase buffer (50 mM Hepes, 0.01% Brij-35, 10 mM MgCl2, 1 mM EGTA, 0.05% BSA, and 2 mM DTT) is added to the plates on top of the compound, mixed, and pre-incubated for 30 minutes at room temperature. The fluorescently labeled peptide substrate is phosphorylated by CDK2/A2 upon ATP hydrolysis. Following the incubation, 5 μL of 4×ATP diluted in kinase buffer is added to the plate to initiate the reaction. Following the 30-minute incubation, the reaction is stopped by adding 75 μL of stopping buffer containing 0.5 M EDTA.
(§1) The assay plate is then read on a Lab Chip EZ Reader which separates the fluorescently labeled substrate and product peptides through a mobility difference. The phosphorylation of the substrate imparts a negative charge, which allows differences in separation as both are pulled through the microfluidic chip. The ratio of substrate and product values are used to generate percent conversion. These raw percent conversion values are normalized to calculate percent inhibition, which are fit to a four-parameter logistic curve and IC50 values are calculated. IC50 values are converted to Ki through using substrate and Km^app values, and the Cheng-Prusoff equation.

CDK1/CyclinB1 [3] = target: T2, CDK1/CyclinB1 (Homo sapiens, UniProt P06493); test: CDK1/Cyclin B1 Mobility Shift Assay (Caliper, Table B); assay type: biochemical; details: read-out: CDK1/CCNB1 Caliper Ki: Average Ki
T2 construct: Wild-type, full length CDK1 in complex with wildtype, full length CyclinB1: Carna Cat #04-102; purchased Carna 04-102
Protocol: 10 nL of 2000× compound in 100% DMSO is added to a 384-well polypropylene assay plate. 15 μL of 1.3×CDK1/B1 and 1.3× fluorescent substrate (Wild-type, full length CDK1 in complex with wildtype, full length CyclinB1: Carna Cat #04-102 and FL-Peptide 29: PerkinElmer Cat #760429) diluted in kinase buffer (50 mM Hepes, 0.01% Brij-35, 10 mM MgCl2, 1 mM EGTA, 0.05% BSA, and 2 mM DTT) is added to the plates on top of the compound, mixed, and pre-incubated for 30 minutes at room temperature. The fluorescently labeled peptide substrate is phosphorylated by CDK1/B1 upon ATP hydrolysis. Following the incubation, 5 μL of 4×ATP diluted in kinase buffer is added to the plate to initiate the reaction. Following the 30-minute incubation, the reaction is stopped by adding 75 μL of stopping buffer containing 0.5 M EDTA.
as §1, with “Ki” for “Ki through”, “substrate, Kmapp” for “substrate and Km^app”

CDK9/CyclinT1 [4] = target: T3, CDK9/CyclinT1 (Homo sapiens, UniProt P50750); test: CDK9/CyclinT1 Mobility Shift Assay (Caliper, Table B); assay type: biochemical; design: Wild-type, full length CDK9 in complex with wildtype, CyclinT1 (1-259): Biortus Cat #BP480/792/691; purchased Biortus BP480/792/691; details: read-out: CDK9/Cyclin T1 Caliper Ki: Average Ki
Protocol: 10 nL of 2000× compound in 100% DMSO is added to a 384-well polypropylene assay plate. 15 μL of 1.3×CDK9/T1 and 1.3× fluorescent substrate (Wild-type, full length CDK9 in complex with wildtype, CyclinT1 (1-259): Biortus Cat #BP480/792/691 and FL-Peptide 34: PerkinElmer Cat #760643) diluted in kinase buffer (50 mM Hepes, 0.01% Brij-35, 10 mM MgCl2, 1 mM EGTA, 0.05% BSA, and 2 mM DTT) is added to the plates on top of the compound, mixed, and pre-incubated for 30 minutes at room temperature. The fluorescently labeled peptide substrate is phosphorylated by CDK9/T1 upon ATP hydrolysis. Following the incubation, 5 μL of 4×ATP diluted in kinase buffer is added to the plate to initiate the reaction. Following the 30-minute incubation, the reaction is stopped by adding 75 μL of stopping buffer containing 0.5 M EDTA.
as §1, with “Ki” for “Ki through”, “substrate, Kmapp” for “substrate and Km^app”
Target sequence in this assay (P50750 whole entry): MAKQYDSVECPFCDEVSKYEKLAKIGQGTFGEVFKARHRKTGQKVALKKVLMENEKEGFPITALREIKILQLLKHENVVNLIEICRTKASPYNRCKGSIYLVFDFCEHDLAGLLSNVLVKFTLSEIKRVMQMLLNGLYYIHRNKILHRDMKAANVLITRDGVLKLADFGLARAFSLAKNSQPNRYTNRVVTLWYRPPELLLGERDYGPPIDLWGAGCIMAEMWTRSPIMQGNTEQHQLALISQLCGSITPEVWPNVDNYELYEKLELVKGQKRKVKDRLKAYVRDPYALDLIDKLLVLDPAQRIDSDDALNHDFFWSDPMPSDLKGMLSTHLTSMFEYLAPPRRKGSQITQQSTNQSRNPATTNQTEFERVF
Target sequence in this assay (O60563 1-259 partner limits assumed): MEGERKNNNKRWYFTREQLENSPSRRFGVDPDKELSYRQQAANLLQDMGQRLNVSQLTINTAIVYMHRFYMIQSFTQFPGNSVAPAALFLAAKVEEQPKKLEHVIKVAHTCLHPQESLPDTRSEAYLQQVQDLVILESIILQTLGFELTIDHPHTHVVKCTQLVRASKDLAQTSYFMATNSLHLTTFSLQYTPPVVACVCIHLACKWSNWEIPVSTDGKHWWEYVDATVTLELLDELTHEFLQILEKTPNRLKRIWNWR

CDK9/CyclinT1 [5] = target: T3, CDK9/CyclinT1; test: CDK9/CyclinT1 ChEF Assay (Table A); assay type: biochemical; design: Wild-type, full length CDK9 in complex with wildtype, full length CyclinT1: Invitrogen Cat #PV4131; purchased Invitrogen PV4131; details: 10xKm, read-out: CDK9/CCNT1 ChEF 10xKm Ki: Average Ki
Protocol: 500 nL of 50× compound in 100% DMSO is added to a 384-well low volume, white assay plate. 19.5 μL of 1.3×CDK9/CyclinT1 (Wild-type, full length CDK9 in complex with wildtype, full length CyclinT1: Invitrogen Cat #PV4131) diluted in assay buffer (50 mM Hepes, 0.01% Brij-35, 10 mM MgCl2, 0.5 mM EGTA, 1% Glycerol, and 1.2 mM DTT) is added to the plates on top of the compound and pre-incubated for 30 minutes at room temperature. Following the incubation, 5 μL of 5×Sox-chromophore (CSox) labeled peptide substrate (AQT0449, AssayQuant) & ATP diluted in assay buffer is added to the plate to initiate the reaction. The assay is incubated at room temperature for 120 min after initiation. The CSox peptide substrate is phosphorylated by CDK9/T1 upon ATP hydrolysis.
(§2) The fluorescent intensity measurement of the assay plate for all assays described above is read on a microplate reader once the assay is initiated and again at the completion of the assay. Phosphorylation of the CSox-based peptide substrate sensor results in an immediate increase in fluorescence. These raw fluorescence intensity values are normalized to calculate percent inhibition, which are fit to a four-parameter logistic curve and IC50 values are calculated. IC50 values are converted to Ki using substrate, KM^app values, and the Cheng-Prusoff equation.
Target sequence in this assay (P50750 whole entry): as the sequence (P50750 whole entry) above
Target sequence in this assay (O60563 whole entry partner): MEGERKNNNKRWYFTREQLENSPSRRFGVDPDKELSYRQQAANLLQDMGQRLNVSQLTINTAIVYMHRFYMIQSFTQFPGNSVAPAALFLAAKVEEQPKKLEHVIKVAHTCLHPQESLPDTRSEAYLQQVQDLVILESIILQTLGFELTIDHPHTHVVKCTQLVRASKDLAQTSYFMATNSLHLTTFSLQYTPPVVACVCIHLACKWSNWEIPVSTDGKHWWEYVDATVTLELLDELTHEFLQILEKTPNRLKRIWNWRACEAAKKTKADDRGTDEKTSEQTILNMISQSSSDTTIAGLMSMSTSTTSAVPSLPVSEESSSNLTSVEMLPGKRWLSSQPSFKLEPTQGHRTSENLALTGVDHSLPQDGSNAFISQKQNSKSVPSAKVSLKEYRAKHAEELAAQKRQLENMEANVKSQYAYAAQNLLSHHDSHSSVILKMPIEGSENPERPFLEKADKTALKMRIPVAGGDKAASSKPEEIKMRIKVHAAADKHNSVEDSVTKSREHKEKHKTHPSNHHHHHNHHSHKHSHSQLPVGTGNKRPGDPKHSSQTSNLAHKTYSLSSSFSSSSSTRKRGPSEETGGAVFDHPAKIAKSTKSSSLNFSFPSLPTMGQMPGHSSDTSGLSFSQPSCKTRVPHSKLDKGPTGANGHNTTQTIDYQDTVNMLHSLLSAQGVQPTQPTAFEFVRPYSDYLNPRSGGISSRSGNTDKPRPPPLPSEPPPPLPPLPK

CDK2/CyclinA2 [6] = target: T1, CDK2/CyclinA2; test: CDK2/CyclinA2 ChEF Assay (Table A); assay type: biochemical
Protocol: 500 nL of 50× compound in 100% DMSO is added to a 384-well low volume, white assay plate. 19.5 μL of 1.3×CDK2/CyclinA2 (Wild-type, full length CDK2 in complex with wildtype, full length CyclinA2: Carna Cat #04-103 diluted in assay buffer (50 mM Hepes, 0.01% Brij-35, 10 mM MgCl2, 0.5 mM EGTA, 1% Glycerol, and 1.2 mM DTT) is added to the plates on top of the compound and pre-incubated for 30 minutes at room temperature. Following the incubation, 5 μL of 5×Sox-chromophore (CSox) labeled peptide substrate (AQT0255, AssayQuant) & ATP diluted in assay buffer is added to the plate to initiate the reaction. The assay is incubated at room temperature for 45 min after initiation. The CSox peptide substrate is phosphorylated by CDK2/A2 upon ATP hydrolysis.
as §2

CDK1/CyclinB1 [7] = target: T2, CDK1/CyclinB1; test: CDK1/CyclinB1 ChEF Assay (Table A); assay type: biochemical; details: read-out: CDK1/CCNB1 ChEF Ki: Average Ki;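 also: Ki reported in nM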
Protocol: 500 nL of 50× compound in 100% DMSO is added to a 384-well low volume, white assay plate. 19.5 μL of 1.3×CDK1/CyclinB1 (Wild-type, full length CDK1 in complex with wildtype, full length CyclinB1: Carna Cat #04-102) diluted in assay buffer (50 mM Hepes, 0.01% Brij-35, 10 mM MgCl2, 0.5 mM EGTA, 1% Glycerol, and 1.2 mM DTT) is added to the plates on top of the compound and pre-incubated for 30 minutes at room temperature. Following the incubation, 5 μL of 5×Sox-chromophore (CSox) labeled peptide substrate (AQT0297, AssayQuant) & ATP diluted in assay buffer is added to the plate to initiate the reaction. The assay is incubated at room temperature for 30 min after initiation. The CSox peptide substrate is phosphorylated by CDK1/B1 upon ATP hydrolysis.
as §2

T2 sequence (P06493 whole entry): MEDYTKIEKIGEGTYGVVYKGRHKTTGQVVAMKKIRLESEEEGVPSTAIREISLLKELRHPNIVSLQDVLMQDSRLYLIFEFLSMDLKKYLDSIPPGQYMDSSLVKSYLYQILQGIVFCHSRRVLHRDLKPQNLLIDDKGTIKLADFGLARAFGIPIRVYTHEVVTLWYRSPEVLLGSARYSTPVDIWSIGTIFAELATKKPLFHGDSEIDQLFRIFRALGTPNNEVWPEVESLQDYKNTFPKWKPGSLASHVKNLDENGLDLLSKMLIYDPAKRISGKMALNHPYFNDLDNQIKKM
T2 sequence (P14635 whole entry partner): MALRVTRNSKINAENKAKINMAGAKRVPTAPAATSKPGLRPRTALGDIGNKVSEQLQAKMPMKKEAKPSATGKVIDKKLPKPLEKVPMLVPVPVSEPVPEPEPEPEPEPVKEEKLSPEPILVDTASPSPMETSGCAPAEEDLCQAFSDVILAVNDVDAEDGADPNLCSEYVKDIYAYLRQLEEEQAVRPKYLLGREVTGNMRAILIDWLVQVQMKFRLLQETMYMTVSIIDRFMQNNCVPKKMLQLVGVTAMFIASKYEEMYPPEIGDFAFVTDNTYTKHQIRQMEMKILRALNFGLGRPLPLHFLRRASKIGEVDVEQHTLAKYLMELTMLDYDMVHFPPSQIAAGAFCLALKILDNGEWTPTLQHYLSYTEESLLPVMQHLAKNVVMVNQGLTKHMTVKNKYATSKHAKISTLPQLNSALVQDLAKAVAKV

| SMILES | Ki (CDK2/CyclinA2 [2]) [nM] | CDK2/CCNA2 Caliper 10xKm Ki: CDK2/A2 Selectivity over CDK1/B1 (CDK2/CyclinA2 [2]) | CDK2/CCNA2 Caliper 10xKm Ki: CDK2/A2 Selectivity over CDK9 (CDK2/CyclinA2 [2]) | Ki (CDK1/CyclinB1 [3]) [nM] | also measured |
| --- | --- | --- | --- | --- | --- |
| CC(C)(C)n1nc2cc1[C@H]1CC[C@H](C1)OC(=O)NCCOCCNS(=O)(=O)c1ccc(c(F)c1)N2 |  |  |  |  | ring closure, yield of all isomers (from CC(C)(C)OC(=O)NCCOCCNS(=O)(=O)c1ccc(Nc2cc([C@H]3CC[C@@H](OC(=O)Oc4ccc([N+](=O)[O-])cc4)C3)n(C(C)(C)C)n2)c(F)c1, other bond, DIPEA, DCE, 5.25 mM, 25.0 °C, 18.0 h, 2 steps): 62.3% |
| CC(C)(C)OC(=O)NCCCCCNc1cc(Nc2ncc(C3CCC(OC(=O)Oc4ccc([N+](=O)[O-])cc4)C3)cn2)ccc1S(=O)(=O)NC(=O)OC(C)(C)C (stereo not drawn) |  |  |  |  | ring closure, isolated yield [1]: 39.5% |
| CC(C)(C)n1nc2cc1[C@H]1CC[C@H](C1)OC(=O)NCCCCCCNS(=O)(=O)C1CCC(CC1)N2 |  |  |  |  | ring closure, yield of all isomers (from CC(C)(C)OC(=O)NCCCCCCNS(=O)(=O)C1CCC(Nc2cc([C@H]3CC[C@@H](OC(=O)Oc4ccc([N+](=O)[O-])cc4)C3)n(C(C)(C)C)n2)CC1, other bond, DIPEA, DCE, 4.26 mM, 25.0 °C, 18.0 h, 2 steps): 50% |
| NS(=O)(=O)c1ccc2cc1OCCCCCNC(=O)OC1CCC(C1)c1cnc(nc1)N2 (stereo not drawn) |  |  |  |  | ring closure, yield of all isomers (from NCCCCCOc1cc(Nc2ncc(C3CCC(OC(=O)Oc4ccc([N+](=O)[O-])cc4)C3)cn2)ccc1S(N)(=O)=O, other bond, DIEA, DMF, 41.5 mM, 50.0 °C, 2.0 h): 11.1% |
| O=C1NCCCCOc2cccc(n2)Nc2ncc(cn2)[C@@H]2CC[C@@H](C2)O1 [Compound 114] | 25 to 100 | B (5≤B<10) | B (5≤B<10) | ≥ 100 |  |
| O=C1NCCCCCOc2cccc(n2)Nc2ncc(cn2)[C@@H]2CC[C@@H](C2)O1 [Compound 113] | ≥ 100 | B (5≤B<10) | B (5≤B<10) | ≥ 100 |  |
| NS(=O)(=O)c1ccc2cc1NCCCCCNC(=O)OC1CCC(C1)c1cnc(nc1)N2 (stereo not drawn) |  |  |  |  | ring closure, yield of all isomers (from CC(C)(C)OC(=O)NCCCCCNc1cc(Nc2ncc(C3CCC(OC(=O)Oc4ccc([N+](=O)[O-])cc4)C3)cn2)ccc1S(=O)(=O)NC(=O)OC(C)(C)C, other bond, DIEA, DMF, 75.0 mM, 50.0 °C, 3.0 h, 2 steps): 39.5% |
| Cn1ncc2c1C(=O)NCCCCCOc1nc(ncc1Br)NC1CCN(CC1)S2(=O)=O |  |  |  |  | ring closure, yield of all isomers (from Cn1ncc(S(=O)(=O)N2CCC(N)CC2)c1C(=O)NCCCCCOc1nc(Cl)ncc1Br, snar bond, K2CO3, DMSO, 6.02 mM, 110.0 °C, 2.0 h): 33% |
| O=C1NCCCCn2cc(cn2)S(=O)(=O)N2CCC(CC2)Nc2cc([nH]n2)[C@H]2CC[C@H](C2)O1 [Compound 94, (11S,13R,24Z,64E)-21H,61H-13-oxa-5-thia-3,11-diaza-4(4,1)-piperidina-2(5,3),6(4,1)-dipyrazola-1(1,3)-cyclopentanacyclotridecaphan-12-one 5,5-dioxide] |  |  |  |  | Ki (CDK9/CyclinT1 [5]): 1 to 25 nM; Ki (CDK2/CyclinA2 [6]; 10xKm, read-out: CDK2/CCNA2 ChEF 10xKm Ki: Average Ki): 25 to 100 nM; CDK2/CCNA2 ChEF 10xKm Ki: CDK2/A2 Selectivity over CDK9/T1 (CDK2/CyclinA2 [6]; selectivity over CDK9/T1): A (A>10); Ki (CDK1/CyclinB1 [7]): ≥ 100 nM; Ki (CDK9/CyclinT1 [4]): 25 to 100 nM |

Continued, in another order:

| Ki (CDK2/CyclinA2 [2]) [nM] | CDK2/CCNA2 Caliper 10xKm Ki: CDK2/A2 Selectivity over CDK1/B1 (CDK2/CyclinA2 [2]) | CDK2/CCNA2 Caliper 10xKm Ki: CDK2/A2 Selectivity over CDK9 (CDK2/CyclinA2 [2]) | Ki (CDK1/CyclinB1 [3]) [nM] | SMILES | also measured |
| --- | --- | --- | --- | --- | --- |
| 25 to 100 | C (C<5) | B (5≤B<10) | ≥ 100 | O=C1NCCCCCCCOc2cccc(n2)Nc2ncc(cn2)[C@@H]2CC[C@@H](C2)O1 [Compound 111] | Ki (CDK9/CyclinT1 [4]): ≥ 100 nM |
| ≥ 100 | B (5≤B<10) | C (C<5) | ≥ 100 | O=C1NCCCCCCNS(=O)(=O)c2ccc(cc2)Nc2ncc(cn2)[C@@H]2CC[C@@H](C2)O1 [Compound 115] |  |
| 25 to 100 | B (5≤B<10) | B (5≤B<10) | ≥ 100 | O=C1NCCCCCCOc2cccc(n2)Nc2ncc(cn2)[C@@H]2CC[C@@H](C2)O1 [Compound 112] | Ki (CDK9/CyclinT1 [4]): ≥ 100 nM |
